Data as given in patent US9777045B2, “Immunogenic compositions and methods” (Longhorn Vaccines and Diagnostics, LLC, priority 2007, dated 2017).
“And” between values parts separate entries of the source, which are not always exact repeats. Identical values can stand only once.

B1: GNLFIAPGNLFIAPHYEECSCYHYEECSCYQYIKANSKFIGITEHYEECSCYTPIRNETPIRNE (peptide)
chain: GNLFIAPGNLFIAPHYEECSCYHYEECSCYQYIKANSKFIGITEHYEECSCYTPIRNETPIRNE

Legend:
[1] = test system: peptide corresponding to the peptide-BSA conjugate used for injection; test: ELISA for anti-peptide antibodies (individual mouse sera 1:100); type: in vivo, mice; conditions: for Average Absorbance Values of sera for tested peptides, Day 14 / Average Absorbance Values of sera for tested peptides, Day 29 / Average Absorbance Values of sera for tested peptides, Day 42 / Average Absorbance Values of sera for tested peptides, Pre: group average; for Average Absorbance Values of sera for tested peptides, Day 14 / Average Absorbance Values of sera for tested peptides, Day 29 / Average Absorbance Values of sera for tested peptides, Day 42 / Average Absorbance Values of sera for tested peptides, Pre / Individual absorbancy values of sera for tested peptides, Day 14 / Individual absorbancy values of sera for tested peptides, Day 29 / Individual absorbancy values of sera for tested peptides, Day 42: mice; for Average Absorbance Values of sera for tested peptides, Pre / Individual absorbancy values of sera for tested peptides, Pre: pre-bleed; for Individual absorbancy values of sera for tested peptides, Pre: mice injected with peptide-BSA conjugate, absorbance 450 nm; for Individual absorbancy values of sera for tested peptides, Pre / Individual absorbancy values of sera for tested peptides, Day 14 / Individual absorbancy values of sera for tested peptides, Day 29 / Individual absorbancy values of sera for tested peptides, Day 42: sera 1:100
Description: Individual sera were tested at a final dilution of 1:100 (in PBS-T) on Nunc Maxisorp® plates coated with the peptide corresponding to the peptide-BSA conjugate used for injection, at a concentration of 1 μg/ml in PBS (100 μl/well). One hundred microliters of diluted sera were reacted on the coated plate for 30 to 60 min at room temperature, and unbound material was removed by washing three times with PBS-T. Anti-peptide antibodies were detected with peroxidase-labeled goat anti-mouse IgG (γ-specific), diluted 1:10000 in PBS-T (100 μl/well; Jackson ImmunoResearch Laboratories, Inc., West Grove, Pa., USA). Following 30-min incubation, the wells were washed five times with PBS-T to removed unbound material and 100 μl of substrate (TMB; Kirkegaard & Perry Laboratories, Inc., Gaithersburg, Md., USA) was added to each well. The reaction was allowed to proceed for 15 min in the dark and stopped by addition of 100 μl of TMB Stop Solution per well (Kirkegaard & Perry). Absorbance was determined at 450 nm.

[2] = test system: live Wuhan (Influenza A/Wuhan/359/95, H3N2); test: ELISA for anti-Wuhan antibodies (mouse sera 1:100); type: in vivo, mice; conditions: sera 1:100; for Absorbance values for individual sera tested on influenzavirus strain Wuhan, Pre: pre-bleed; for Anti-Wuhan Absorbance Day 42 (group average) / Anti-Wuhan Absorbance Pre-Bleed (group average): averaged results
[3] = test system: IFN-γ induction in splenocytes; type: cell-based; conditions: mice immunized with peptide-BSA conjugates; 72 h in vitro treatment
live H3N2 virus = type: in vivo, cotton rats (Sigmodon hispidus); conditions: cotton rats; 100 μg IM on day 0 and day 28, in CFA or in PBS; sera day 0, 28, 42
[4] = test system: Influenza H1N1, H3N2, and H5N1; conditions: in vivo
[5] = 5 μg per injection, listed as 1911

Molecule | Average Absorbance Values of sera for tested peptides, Day 14 ([1]; 5 μg per injection) | Average Absorbance Values of sera for tested peptides, Day 29 ([1]; 5 μg per injection) | Average Absorbance Values of sera for tested peptides, Day 42 ([1]; 5 μg per injection) | Average Absorbance Values of sera for tested peptides, Pre ([1]; 5 μg per injection) | Average Absorbance Values of sera for tested peptides, Day 14 ([1]; 20 μg per injection) | Average Absorbance Values of sera for tested peptides, Day 29 ([1]; 20 μg per injection) | Average Absorbance Values of sera for tested peptides, Day 42 ([1]; 20 μg per injection) | Average Absorbance Values of sera for tested peptides, Pre ([1]; 20 μg per injection) | Individual absorbancy values of sera for tested peptides, Pre ([1]; 5 μg per injection) | Individual absorbancy values of sera for tested peptides, Pre ([1]; 20 μg per injection) | Individual absorbancy values of sera for tested peptides, Day 14 ([1]; 5 μg per injection) | Individual absorbancy values of sera for tested peptides, Day 29 ([1]; 5 μg per injection) | Individual absorbancy values of sera for tested peptides, Day 42 ([1]; 5 μg per injection) | Individual absorbancy values of sera for tested peptides, Day 14 ([1]; 20 μg per injection) | Individual absorbancy values of sera for tested peptides, Day 29 ([1]; 20 μg per injection) | Individual absorbancy values of sera for tested peptides, Day 42 ([1]; 20 μg per injection) | Absorbance values for individual sera tested on influenzavirus strain Wuhan, Pre ([2]; mice, 5 μg per injection) | Absorbance values for individual sera tested on influenzavirus strain Wuhan, Pre ([2]; mice, 20 μg per injection) | Anti-Wuhan Absorbance Day 42 (individual mice) ([2]; dose per inject 5 μg) | Anti-Wuhan Absorbance Pre-Bleed (individual mice) ([2]; dose per inject 5 μg) | further results
HYEECSCY [Peptide 5911] | 0.264 | 0.213 | 0.347 | 0.156 | 0.171 | 0.229 | 0.342 | 0.132 | 0.126 and 0.187 and 0.137 | 0.099 and 0.109 and 0.151 and 0.121 | 0.184 and 0.503 and 0.154 | 0.201 and 0.303 and 0.188 | 0.392 and 0.497 and 0.300 | 0.102 and 0.136 and 0.106 and 0.123 | 0.145 and 0.240 and 0.152 and 0.170 | 0.180 and 0.304 and 0.218 and 0.158 | 0.060 and 0.073 and 0.063 and 0.067 | 0.065 and 0.069 and 0.084 and 0.070 | 0.154 and 0.174 and 0.136 and 0.165 | 0.067 and 0.060 and 0.073 and 0.063 | Individual absorbancy values of sera for tested peptides, Pre [1, 5]: 0.174; Individual absorbancy values of sera for tested peptides, Day 14 [1, 5]: 0.216; Individual absorbancy values of sera for tested peptides, Day 29 [1, 5]: 0.161; Individual absorbancy values of sera for tested peptides, Day 42 [1, 5]: 0.199; Anti-Wuhan Absorbance Day 42 (individual mice) ([2]; dose per inject 20 μg): 0.747 and 0.194 and 0.154 and 0.134; Anti-Wuhan Absorbance Pre-Bleed (individual mice) ([2]; dose per inject 20 μg): 0.065 and 0.069 and 0.084 and 0.070; Anti-Wuhan Absorbance Day 42 (group average) ([2]; dose per injection 5 μg): 0.157; Anti-Wuhan Absorbance Pre-Bleed (group average) ([2]; dose per injection 5 μg): 0.065; Anti-Wuhan Absorbance Day 42 (group average) ([2]; dose per injection 20 μg): 0.307; Anti-Wuhan Absorbance Pre-Bleed (group average) ([2]; dose per injection 20 μg): 0.072; IFN-γ response of spleen cell supernatants (in words) [3]: Weaker responses
MSLLTEVETPIRNEWGCRCNDSSD [Peptide M2e, reference compound] |  |  |  |  |  |  |  |  |  |  |  |  |  |  |  |  |  |  |  |  | IgG titers to live H3N2 virus (ELISA) (live H3N2 virus): no particular advantage over small epitopic peptide fragments
HYEECSCYDWSGYSGSFVQHPELTGLHYEECSCYQYIKANSKFIGITE [Peptide 5908] |  |  |  |  |  |  |  |  |  |  |  |  |  |  |  |  |  |  |  |  | immune response against Influenza H1N1, H3N2, and H5N1 [4]: raised an immune response
DWSGYSGSFVQHPELTGL [Peptide 5912] | 0.162 | 0.325 | 0.693 | 0.130 | 0.130 | 0.123 | 0.155 | 0.100 | 0.090 and 0.094 and 0.107 and 0.156 | 0.100 and 0.098 and 0.090 and 0.123 | 0.287 and 0.109 and 0.230 and 0.147 | 0.175 and 0.137 and 0.700 and 0.138 | 0.154 (2×) and 0.167 and 1.758 | 0.091 and 0.082 and 0.103 and 0.088 | 0.098 and 0.146 and 0.099 and 0.096 | 0.155 and 0.189 and 0.168 and 0.111 | 0.063 and 0.060 and 0.062 and 0.083 | 0.077 and 0.084 and 0.057 and 0.086 | 0.086 and 0.100 and 0.527 and 0.090 | 0.063 and 0.060 and 0.062 and 0.083 | Anti-Wuhan Absorbance Day 42 (individual mice) ([2]; dose per inject 20 μg): 0.132 and 0.431 and 0.093 and 0.068; Anti-Wuhan Absorbance Pre-Bleed (individual mice) ([2]; dose per inject 20 μg): 0.077 and 0.084 and 0.057 and 0.086; Anti-Wuhan Absorbance Day 42 (group average) ([2]; dose per injection 5 μg): 0.201; Anti-Wuhan Absorbance Pre-Bleed (group average) ([2]; dose per injection 5 μg): 0.067; Anti-Wuhan Absorbance Day 42 (group average) ([2]; dose per injection 20 μg): 0.181; Anti-Wuhan Absorbance Pre-Bleed (group average) ([2]; dose per injection 20 μg): 0.076
KSCINRCFYVELIRGR [Peptide 5914] | 0.128 | 0.181 | 0.284 | 0.126 | 0.174 | 0.171 | 0.411 | 0.146 | 0.110 and 0.133 and 0.136 and 0.126 | 0.165 (2×) and 0.133 and 0.123 | 0.117 and 0.123 and 0.156 and 0.118 | 0.248 and 0.136 and 0.219 and 0.121 | 0.388 and 0.264 and 0.357 and 0.127 | 0.213 and 0.150 and 0.153 and 0.180 | 0.175 and 0.214 and 0.141 and 0.156 | 0.284 and 0.480 and 0.646 and 0.234 | 0.062 and 0.059 and 0.090 and 0.083 | 0.099 and 0.132 and 0.068 and 0.080 | 0.176 and 0.329 and 0.239 and 0.096 | 0.062 and 0.059 and 0.090 and 0.083 | Absorbance values for individual sera tested on influenzavirus strain Wuhan, Day 42 ([2]; mice, 5 μg per injection, day 42): 0.172; Anti-Wuhan Absorbance Day 42 (individual mice) ([2]; dose per inject 20 μg): 0.156 and 0.408 and 0.296 and 0.182; Anti-Wuhan Absorbance Pre-Bleed (individual mice) ([2]; dose per inject 20 μg): 0.099 and 0.132 and 0.068 and 0.080; Anti-Wuhan Absorbance Day 42 (group average) ([2]; dose per injection 5 μg): 0.210; Anti-Wuhan Absorbance Pre-Bleed (group average) ([2]; dose per injection 5 μg): 0.073; Anti-Wuhan Absorbance Day 42 (group average) ([2]; dose per injection 20 μg): 0.260; Anti-Wuhan Absorbance Pre-Bleed (group average) ([2]; dose per injection 20 μg): 0.094
B1 |  |  |  |  |  |  |  |  |  |  |  |  |  |  |  |  |  |  |  |  | immune response against Influenza H1N1, H3N2, and H5N1 [4]: raised an immune response
